Experimental data reported in patent US10696622B2, “Synthesis of N-vinyl carboxylic acid amides” (Taminco BVBA, priority 2016, dated 2020).

Assay: Solubility in solvent, CIPAC Method MT 181 at 20° C.
Type: physicochemical
Description: When used, the solvent introduced into first reaction zone 20 may be any suitable type of solvent. The solvent may include a single solvent, or it may comprise a mixture of two or more solvents. In some embodiments, the solvent may be selected based on its solubility with one or more of the starting materials in lines 110, 112, and/or 114, and/or with the reaction product produced within first reaction zone 20. For example, at least one of the starting materials introduced into and/or the product withdrawn from first reaction zone 20 may have a solubility of at least about 20, at least about 25, at least about 30, at least about 35, at least about 40, at least about 45, at least about 50, at least about 55 weight percent in the solvent introduced into first reaction zone 20. In addition, or the alternative, at least one of the reagents introduced into and/or the reaction product withdrawn from first reaction zone 20 may have a solubility of not more than about 80, not more than about 75, not more than about 70, not more than about 65 weight percent in the solvent introduced into first reaction zone 20. Solubility is measured at 20° C. using CIPAC Method MT 181, unless otherwise noted.

SMILES: CC(O)NC=O (centres unmarked) [1-hydroxyethylformamide]
- solubility of 1-hydroxyethylformamide in formamide (in formamide): about 60 weight percent
- solubility of 1-hydroxyethylformamide in isopropanol (in isopropanol, measured as described above (20° C., CIPAC Method MT 181)): 20.1 weight percent
